Experimental data reported in US9029337B2, “Modulation of factor 7 expression” (Isis Pharmaceuticals, Inc., priority 2007, dated 2015).
Strand notation (5' to 3'): a small letter for the sugar, then the base; units joined by * are phosphorothioate-linked, units joined directly phosphodiester-linked; [ ] holds rarer units or linkages, { } end groups; capitals alone tell only the bases. e = 2'-O-(2-methoxyethyl) (MOE); [5mC] = 5-methylcytosine; d = 2'-deoxy (DNA)

system: human Factor 7 mRNA; assay: Antisense inhibition of human Factor 7 mRNA in HepB3 cells, 50 nM antisense oligonucleotide, lipofectin; assay type: cell-based; settings: Table 1, 50 nM, lipofectin, approximately 24 hours, relative to untreated control cells
Experimental: Antisense oligonucleotides targeted to a Factor 7 nucleic acid were tested for their effects on Factor 7 mRNA in vitro. Cultured HepB3 cells at a density of 4,000 cells per well were transfected using lipofectin reagent with 50 nM antisense oligonucleotide. After a treatment period of approximately 24 hours, RNA was isolated from the cells and Factor 7 mRNA levels were measured by real-time RT-PCR, as described herein. Factor 7 mRNA levels were adjusted according to total RNA content as measured by RIBOGREEN®. Results are presented as percent inhibition of Factor 7, relative to untreated control cells.
(§1) Antisense oligonucleotides targeted to a Factor 7 nucleic acid were designed and tested for their effects on Factor 7 mRNA in vitro. Certain antisense oligonucleotides from Table 3 were also retested for their effects on Factor 7 mRNA in vitro. Cultured HepB3 cells at a density of 4,000 cells per well were transfected using lipofectin reagent with 50 nM antisense oligonucleotide. After a treatment period of approximately 24 hours, RNA was isolated from the cells and Factor 7 mRNA levels were measured by real-time RT-PCR, as described herein. Human Factor 7 primer probe set RTS 2927 was used to measure mRNA levels. Factor 7 mRNA levels were adjusted according to total RNA content as measured by RIBOGREEN®. Results are presented as percent inhibition of Factor 7, relative to untreated control.
as §1, with “tested” for “tested for their effects on Factor 7 mRNA in vitro. Certain antisense oligonucleotides from Table 3 were also retested”
These gapmers were designed by creating gapmers shifted slightly upstream and downstream (i.e. “microwalk”) of the original gapmers from Table 7. Gapmers were also created with various motifs, e.g. 5-10-5 MOE, 3-14-3 MOE, and 2-13-5 MOE. These gapmers were tested in vitro. Cultured HepB3 cells at a density of 4,000 cells per well were transfected using lipofectin reagent with 50 nM antisense oligonucleotide. After a treatment period of approximately 24 hours, RNA was isolated from the cells and Factor 7 mRNA levels were measured by real-time RT-PCR. Factor 7 mRNA levels were adjusted according to total RNA content, as measured by RIBOGREEN®. Results are presented as percent inhibition of Factor 7, relative to untreated control cells.

Row | Substance | % Inhibition
1 | 407943 (antisense eG*e[5mC]*eA*eG*eG*d[5mC]*dA*d[5mC]*d[5mC]*dA*d[5mC]*dA*dG*dG*dT*eG*eT*eG*e[5mC]*eG) [compound 407943] | 34%
2 | 407638 (antisense eG*e[5mC]*e[5mC]*eA*e[5mC]*dT*d[5mC]*dG*dA*dT*dG*dT*dA*d[5mC]*dT*eG*eG*eG*eA*eG) [compound 407638] | 0%
3 | 407626 (antisense eT*e[5mC]*eT*eT*eG*dA*dT*dT*dT*dT*dG*dT*d[5mC]*dG*dA*eA*eA*e[5mC]*eA*eG) [compound 407626] | 82%
4 | 407919 (antisense eT*e[5mC]*eG*eA*eT*dG*dT*dA*d[5mC]*dT*dG*dG*dG*dA*dG*eA*e[5mC]*e[5mC]*e[5mC]*eT) [compound 407919] | 84%
5 | 407659 (antisense eG*eA*eT*eG*eG*d[5mC]*dA*dT*d[5mC]*dG*dA*dG*dT*d[5mC]*d[5mC]*eA*e[5mC]*eT*e[5mC]*eT) [compound 407659] | 55%
6 | 407595 (antisense eT*e[5mC]*e[5mC]*eT*eG*dA*dG*dG*d[5mC]*d[5mC]*dT*dT*dA*dG*d[5mC]*eG*eA*e[5mC]*e[5mC]*e[5mC]) [compound 407595] | 71%
7 | 407647 (antisense eG*e[5mC]*eA*eG*e[5mC]*d[5mC]*dG*dT*dT*dT*dA*dT*dT*dG*dT*eG*eA*eA*eG*e[5mC]) [compound 407647] | 83%
8 | 407657 (antisense eG*eG*eG*eA*e[5mC]*dT*d[5mC]*dA*dG*d[5mC]*dA*dA*dG*dA*dG*eT*eG*e[5mC]*eA*eG) [compound 407657] | 26%
9 | 407608 (antisense eT*eA*eT*eA*eG*dG*dA*d[5mC]*dT*dG*dG*dA*dG*d[5mC]*dT*eG*eG*eT*e[5mC]*e[5mC]) [compound 407608] | 13%
10 | 407914 (antisense e[5mC]*e[5mC]*eA*eG*e[5mC]*dT*dG*dA*d[5mC]*dG*dA*dT*dG*d[5mC]*d[5mC]*e[5mC]*eG*eT*e[5mC]*eA) [compound 407914] | 82%

same assay, conditions: Table 6, 50 nM, lipofectin, approximately 24 hours

Row | Substance | % Inhibition
11 | 422195 (antisense eA*e[5mC]*eT*dG*dA*dG*d[5mC]*dG*d[5mC]*dG*dG*dA*dA*dG*dA*dA*dG*eG*eG*eA) [compound 422195] | 37%
12 | 422121 (antisense eG*e[5mC]*eG*e[5mC]*eG*dG*dA*dA*dG*dA*dA*dG*dG*dG*dA*e[5mC]*eG*eG*eA*eA) [compound 422121] | 43%

same assay, conditions: gapmers targeted to nucleobases 4868 to 4899 of SEQ ID NO: 1, Table 8

Row | Substance | % Inhibition of human Factor 7 mRNA levels
13 | 422290 (antisense eT*e[5mC]*dT*dG*d[5mC]*dA*dG*dG*dA*dG*d[5mC]*dG*dG*d[5mC]*d[5mC]*eT*eA*eA*eA*eT) [compound 422290] | 50%

same assay, conditions: lipofectin, 50 nM antisense oligonucleotide, approximately 24 hours, Factor 7 mRNA by real-time RT-PCR (RTS 2927), relative to untreated control

Row | Substance | % Inhibition
14 | 416436 (antisense eA*e[5mC]*eT*eG*eG*dT*d[5mC]*d[5mC]*d[5mC]*d[5mC]*dA*dT*d[5mC]*dA*d[5mC]*eT*eG*eT*eA*eA) [compound 416436] | 27%
15 | 416493 (antisense eT*e[5mC]*eT*eT*eG*dG*dG*dT*dG*dT*dG*dG*dA*dT*dG*eT*eA*eA*eA*eT) [compound 416493] | 0%
16 | 416566 (antisense eG*eT*eT*eT*eG*dT*dA*dT*dG*dG*dA*dG*dA*dG*dA*e[5mC]*e[5mC]*eA*eA*eT) [compound 416566] | 0%
17 | 416537 (antisense eT*eG*eA*e[5mC]*e[5mC]*dA*d[5mC]*dT*d[5mC]*dT*dT*d[5mC]*d[5mC]*dG*dA*eG*e[5mC]*eA*eG*e[5mC]) [compound 416537] | 55%
18 | 416520 (antisense e[5mC]*e[5mC]*e[5mC]*eT*e[5mC]*dT*dG*d[5mC]*dA*dA*dA*dT*dA*dT*dG*eG*eG*eA*e[5mC]*e[5mC]) [compound 416520] | 14%
19 | 416499 (antisense eG*eA*eG*eA*eG*d[5mC]*dT*dG*d[5mC]*dA*d[5mC]*d[5mC]*dT*dG*dG*e[5mC]*e[5mC]*eG*eG*e[5mC]) [compound 416499] | 7%
20 | 416529 (antisense eG*eG*eG*e[5mC]*eT*dG*dA*dG*dA*d[5mC]*dT*dG*dA*dG*dG*eT*e[5mC]*eA*eG*e[5mC]) [compound 416529] | 18%
21 | 416444 (antisense eA*e[5mC]*eA*eG*eT*dT*d[5mC]*d[5mC]*dG*dG*d[5mC]*d[5mC]*d[5mC]*dT*d[5mC]*eG*eA*eA*eG*eG) [compound 416444] | 24%
22 | 416556 (antisense eA*eT*eA*eG*e[5mC]*dT*dT*dT*dG*dA*dT*d[5mC]*d[5mC]*dA*dA*eT*eG*e[5mC]*eT*e[5mC]) [compound 416556] | 53%
23 | 416554 (antisense eA*eA*eA*eG*eA*dT*d[5mC]*d[5mC]*d[5mC]*dA*d[5mC]*d[5mC]*dT*d[5mC]*dA*eA*eA*eG*eA*eG) [compound 416554] | 7%
24 | 416569 (antisense eG*e[5mC]*e[5mC]*eT*eG*dG*dT*dG*dT*dG*d[5mC]*dA*d[5mC]*dA*d[5mC]*eA*eT*eT*eG*eT) [compound 416569] | 12%
25 | 416435 (antisense e[5mC]*e[5mC]*e[5mC]*eA*eT*d[5mC]*dA*d[5mC]*dT*dG*dT*dA*dA*dG*dA*eA*eA*eT*e[5mC]*e[5mC]) [compound 416435] | 3%
26 | 416470 (antisense eG*e[5mC]*eT*eT*eT*dT*dG*d[5mC]*dA*dG*d[5mC]*d[5mC]*dA*d[5mC]*dT*e[5mC]*eG*eA*eT*eG) [compound 416470] | 39%

same assay, conditions: oligonucleotides targeted to nucleobases 11830 to 11869 of SEQ ID NO: 1 (Table 9)

Row | Substance | % Inhibition (human Factor 7 mRNA levels)
27 | 422100 (antisense eG*eA*eG*eG*eA*dG*dA*d[5mC]*dA*dA*dT*dG*dG*dT*d[5mC]*eA*eG*eG*eG*e[5mC]) [compound 422100] | 59%
28 | 422097 (antisense eG*eA*eG*eA*e[5mC]*dA*dA*dT*dG*dG*dT*d[5mC]*dA*dG*dG*eG*e[5mC]*eT*eG*eG) [compound 422097] | 59%
29 | 422101 (antisense eT*eG*eA*eG*eG*dA*dG*dA*d[5mC]*dA*dA*dT*dG*dG*dT*e[5mC]*eA*eG*eG*eG) [compound 422101] | 42%
30 | 422154 (antisense eT*e[5mC]*eA*dG*dG*dG*d[5mC]*dT*dG*dG*dT*dT*dT*dT*dG*dG*dA*eG*eG*eA) [compound 422154] | 31%

same assay, conditions: oligonucleotides targeted to nucleobases 13760 to 13789 of SEQ ID NO: 1 (Table 10)

Row | Substance | % Inhibition (human Factor 7 mRNA levels)
31 | 422113 (antisense eG*e[5mC]*e[5mC]*eA*e[5mC]*d[5mC]*d[5mC]*dG*d[5mC]*d[5mC]*dG*dG*d[5mC]*dT*d[5mC]*eT*eG*e[5mC]*eT*e[5mC]) [compound 422113] | 68%
32 | 422111 (antisense e[5mC]*eA*e[5mC]*e[5mC]*e[5mC]*dG*d[5mC]*d[5mC]*dG*dG*d[5mC]*dT*d[5mC]*dT*dG*e[5mC]*eT*e[5mC]*eA*eT) [compound 422111] | 37%

same assay, conditions: oligonucleotides targeted to nucleobases 14707 to 14732 of SEQ ID NO: 1 (Table 11)

Row | Substance | % Inhibition (human Factor 7 mRNA levels)
33 | 422277 (antisense e[5mC]*e[5mC]*dT*dG*dA*dG*dG*d[5mC]*d[5mC]*dA*dG*d[5mC]*dA*dG*dA*eT*e[5mC]*eA*e[5mC]*eG) [compound 422277] | 56%

same assay, conditions: oligonucleotides targeted to nucleobases 15098 to 15122 of SEQ ID NO: 1 (Table 12)

Row | Substance | % Inhibition (human Factor 7 mRNA levels)
34 | 422209 (antisense eA*eG*e[5mC]*dA*d[5mC]*dA*d[5mC]*dA*dT*dG*dG*dA*dG*dT*d[5mC]*dA*dG*e[5mC]*eA*eT) [compound 422209] | 47%
35 | 422134 (antisense eG*e[5mC]*eA*e[5mC]*eA*d[5mC]*dA*dT*dG*dG*dA*dG*dT*d[5mC]*dA*eG*e[5mC]*eA*eT*e[5mC]) [compound 422134] | 67%
